Key:
rabbit DED model [1] = assay: Tear film break-up time (TBUT), rabbit DED model; format: in vivo
From the text: (§1) The rabbit DED model was induced by locally administrating 0.1% benzalkoniumchloride (BAC) drops (Sigma, St. Louis, MO, USA) twice a day (8 a.m. and 4 p.m.). Before the BAC treatment, the control group (baseline, naive) underwent standard dry eye clinical tests such as the Schirmer tear test (STT), TBUT, and corneal staining score (CSS) test. […] The test substance was locally applied bis in die (BID) to both eyes.
TBUT is the time elapsed between the last blink and the first appearance of fluorescein decomposition, and it is an indicator of tear film stability. […] The measurement was repeated three times to obtain an average value.
Tear film instability is an important pathological characteristic of DED and the most common indicator of tear quality.

rabbit DED model [2] = assay: Schirmer tear test (STT), rabbit DED model; format: in vivo
Procedure: as §1, with “test. After the BAC treatment, the induction of dry eye syndrome was confirmed, and the test substance was administered for 10 days while maintaining the induction of dry eye syndrome.” for “test.”
The tear secretion was measured for 20 seconds by contacting a cotton thread containing phenol red (Zone-Quick™; Oasis Medical, Inc., Glendora, CA, USA) to the conjunctival sac on the lateral canthus of the mouse eye. After measuring the length using a Nikon SMZ1500 microscope, the length substituted to the prescribed formula, and the value was converted to volume. The tear production of the rabbits was measured by a modified Schirmer tear test using Whatman 41 filter paper strips (Tianjin Jingming New Technology Development Co., Ltd., Tianjin, China) on Day 0, Day 5, and Day 10. Eye examination of the rabbits was performed under anesthesia. The anesthesia was performed under sedation by performing intramuscular injection of xylazine (3 mg/kg, Rompun®; Bayer Korea, Korea) and intramuscular injection of 10 mg/kgtiletamine/zolazepam (Zoletil®, Virbac Laboratories, Carros, France). After adding 1 drop of proparacaine HCl 0.5% (Alcaine®, Alcon Korea Ltd., Seoul, Korea), excess tears and eye drops were removed with Weck-cel® […]. The wet length (mm) of the paper strip was read after 5 minutes.

CD11b+ monocytes = CD11b+ monocytes by flow cytometry, EDE mouse model; format: in vivo; conditions: for geometric mean number of CD11b+ monocytes: cornea
Procedure: The cornea, conjunctiva, and each tissue required for analysis were excised with scissors, incised, and shaken with 0.5 mg/mL collagenase type D at 37° C. for 1 hour. After pulverizing the tissue, the resulting mixture was passed through a cell strainer, centrifuged, and resuspended in phosphate-buffered saline containing 1% bovine serum albumin.
In DED, corneal barrier destruction and epithelial cell loss are accompanied by bone marrow and T cell infiltration. Activated T lymphocytes are the primary producers of Th-1 cytokines and interferon (IFN)-γ, which promote cell death at the ocular surface. To evaluate the anti-inflammatory effect of (PEG)-BHD1028 in the EDE mouse model, immune cells that play the role of inflammatory cell surface markers were quantified by flow cytometry with one animal per group.

[3] = Stability of eye drop formulations stored at 40° C., RP-HPLC; format: physicochemical
Procedure: Eye drops using (PEG)-BHD1028 were prepared by setting eye characteristics, pH, osmolarity, and viscosity as important parameters. To adjust the above parameters, various reagents and substances were added to the test formulation, which was stored at 40° C. to confirm the stability of the formulation. In addition, the reagents used in the target preparation were mainly determined by considering the stability of the drug and the suitability of the manufacturing process. The stability of the formulation was determined based on the RP-HPLC analysis data. The shelf life was set as the period before a single impurity reached 1.0 area %, reflecting the mean kinetic temperature (MKT).
The shelf life was calculated based on the stability data reflecting the mean kinetic temperature (MKT). […] Based on this calculation, the lifespan was calculated by multiplying the number of days immediately before the area % of a single impurity reached 1.0% by a factor of 5. The target shelf life was set at 6 months or longer at 25° C., and the stability of the trehalose-only formulation is expected to have a shelf life of about 7 months.

[4] = rabbit, 0.1% group, Baseline (before BAC treatment)
[5] = rabbit, 0.1% group, Day 0 (EDE), before treatment
[6] = rabbit, 0.2% group, Baseline (before BAC treatment)
[7] = rabbit, 0.2% group, Day 0 (EDE), before treatment
[8] = rabbit, 0.4% group, Baseline (before BAC treatment)
[9] = rabbit, 0.4% group, Day 0 (EDE), before treatment

For “NH2-Tyr-Tyr-Phe-Ala-Tyr-His-Pro-Asn-Ile-Pro-Gly-Leu-Tyr-Tyr-Phe-COOH (H-YYFAYHPNIPGLYYF-OH; also: PEGylated, site not given here (mPEG), acetate salt) [(PEG)-BHD1028]”, the TBUT (rabbit DED model [1]; rabbit DED, 0.1% BID, Day 5) was 10.64 ± 0.99 s, the TBUT (rabbit DED model [1]; rabbit DED, 0.1% BID, Day 10) was 17.88 ± 1.91 s and the TBUT (rabbit DED model [1]; rabbit DED, 0.2% BID, Day 5) was 15.68 ± 1.58 s. The TBUT (rabbit DED model [1]; rabbit DED, 0.2% BID, Day 10) was 17.72 ± 1.74 s, the TBUT (rabbit DED model [1]; rabbit DED, 0.4% BID, Day 5) was 19.88 ± 1.42 s and the TBUT (rabbit DED model [1]; rabbit DED, 0.4% BID, Day 10) was 22.71 ± 1.87 s. For the same substance, the TBUT (rabbit DED model [1]; [4]) was 49.67 ± 3.17 s, the TBUT (rabbit DED model [1]; [5]) was 8.50 ± 1.0 s and the TBUT (rabbit DED model [1]; [6]) was 49.83 ± 2.10 s. For the same substance, the TBUT (rabbit DED model [1]; [7]) was 8.89 ± 1.34 s, the TBUT (rabbit DED model [1]; [8]) was 53.00 ± 2.29 s and the TBUT (rabbit DED model [1]; [9]) was 8.22 ± 1.16 s. For the same substance, the STT-2 (rabbit DED model [2]; rabbit DED, 0.1% BID, Day 5) was 4.67 ± 0.65 mm, the STT-2 (rabbit DED model [2]; rabbit DED, 0.1% BID, Day 10) was 6.50 ± 0.87 mm and the STT-2 (rabbit DED model [2]; rabbit DED, 0.2% BID, Day 5) was 3.33 ± 0.51 mm. It also gave an STT-2 (rabbit DED model [2]; rabbit DED, 0.2% BID, Day 10) of 7.50 ± 0.99 mm, an STT-2 (rabbit DED model [2]; rabbit DED, 0.4% BID, Day 5) of 4.33 ± 0.45 mm and an STT-2 (rabbit DED model [2]; rabbit DED, 0.4% BID, Day 10) of 6.67 ± 1.02 mm. The STT-2 (rabbit DED model [2]; [4]) was 6.67 ± 0.96 mm, the STT-2 (rabbit DED model [2]; [5]) was 3.00 ± 1.22 mm and the STT-2 (rabbit DED model [2]; [6]) was 8.50 ± 1.39 mm. It also gave an STT-2 (rabbit DED model [2]; [7]) of 3.33 ± 1.28 mm, an STT-2 (rabbit DED model [2]; [8]) of 9.17 ± 1.23 mm and an STT-2 (rabbit DED model [2]; [9]) of 3.33 ± 1.22 mm. The “number of CD11b+ monocytes” value (CD11b+ monocytes; conjunctiva, 0.001%) was 352.09, the “number of CD11b+ monocytes” value (CD11b+ monocytes; conjunctiva, 0.01%) was 330.48 and the “number of CD11b+ monocytes” value (CD11b+ monocytes; conjunctiva, 0.1%) was 36.35. The “geometric mean number of CD11b+ monocytes” value (“geometric mean number” below) (CD11b+ monocytes; 0.001%) was 178.06, the “geometric mean number” value (CD11b+ monocytes; 0.01%) was 131.59 and the “geometric mean number” value (CD11b+ monocytes; 0.1%) was 126.25. The “number of CD11b+ monocytes” value (CD11b+ monocytes; lacrimal gland, 0.001%) was 84, the “number of CD11b+ monocytes” value (CD11b+ monocytes; lacrimal gland, 0.01%) was 74.60 and the “number of CD11b+ monocytes” value (CD11b+ monocytes; lacrimal gland, 0.1%) was 60.48. The formulation stability ([3]; eye drops with sodium EDTA (0.5%), 40° C. for 25 days) was “stability was maintained”, the “formulation stability (impurities)” value ([3]; eye drops with sodium bisulfate (0.03%), Day 7 at 40° C.) was “impurities rapidly increased” and the impurities ([3]; eye drops with sodium hyaluronate 0.1%, 40° C. for 37 days, all impurities) was “less than 1.0 area %”. The “formulation stability and pH, water versus PBS as diluent” value ([3]; eye drops, between the two formulations) was “no significant difference in stability data and pH”, the formulation stability ([3]; formulations including PEG (PEG400, PEG5000, PEG3350) as osmotic reagent) was “considerably decomposed” and the formulation stability ([3]; formulations including salts such as KCl and NaCl, Day 6 at 40° C.) was “considerably decomposed”. The formulation stability ([3]; mannitol, trehalose, or a combination of mannitol and trehalose as osmotic reagent) was “stable”.

From patent US20240408167A1, “COMPOSITION FOR TREATING OCULAR DISEASES CONTAINING PEPTIDE” (Encuragen Inc., priority 2023, published 2024)
